Patent US20250073302A1, “CYCLIC PEPTIDES AS PROTEASOME STIMULATORS” (Purdue Research Foundation, priority 2023, published 2025)
Values joined by “and” are separate entries in the source; they are usually repeats but may differ in a detail not shown here. Equal values may be shown once. Non-standard residues stand in square brackets, D forms with d. Residues, ends and D or L forms follow the SMILES beside them. aThr = C[C@H](O)[C@H](N)C(=O)O; dPra = C#CC[C@@H](N)C(=O)O; dDap = NC[C@@H](N)C(=O)O

Legend:
proteasome [1] = conditions: background statement; cited from earlier work
proteasome [2] = conditions: background statement; cited from earlier work; remark: listed apart in the source
20S CP [3] = biological target: T1, 20S CP; assay: TAS-1 biochemical assay (20S CP stimulation); design: key to Emax: % of DMSO control rate (percent stimulation); key to TAS-1: % of DMSO control rate of TAS-1 hydrolysis; conditions: for EC50: dose-response curve; for EC50 / Emax: 20S CP stimulation; for Emax: maximal response of dose-response curve, in %; for TAS-1: percent stimulation of 20S CP, rate of TAS-1 hydrolysis normalized against DMSO, compounds tested at 10 μM, 5 nM 20S CP
T1 construct: purchased South Bay
Experimental: Each compound was initially tested at 10 μM. Each well contained […] of 11.4 μM TAS-1 solution in Tris HCl (50 mM, pH 7.4) along with 5 nM of 20 sCP (South Bay). 1 μL of the test compound, control, or DMSO was added to the desired well to obtain a final DMSO concentration of 2%, with the total volume being 50 μL. Compounds were tested in three replicates that each had technical triplicates. The fluorescence was recorded using a SynergyNeo 2, where the excitation and emission was set to 335 nm and 493 nm. The plate reader was heated to 37° C. The fluorescence was recorded every 90 seconds over a 1-hour period. A simple linear regression was performed on the data plotted against time to obtain the rate of hydrolysis of TAS-1 by the 20S CP. The data was then normalized against DMSO to get the percent stimulation.

[4] = system: T2, cytosolic proteasome in HEK293 T cells; assay: Flow cytometry assay of proteasome stimulation in cellulo (epoxomicin probe); format: cell-based; conditions: for In-Cellulo: 10 μM stimulator, 2.5 μM epoxomicin probe, 1 hour, flow cytometry (FITC); for cellular stimulation of the proteasome (in words): 10 μM, flow cytometry
T2 construct: endogenous in cells; host or cells: HEK 293T
Source text: Flow cytometry allows for the study of proteasomal activity in physiologically relevant conditions and presents a high-throughput alternative to traditional gel electrophoresis and western blotting techniques. To test the assay, the covalent fluorescent-based probe was applied in HEK293 T cells to quantify proteasome stimulation of CyPPSs alone and in the presence of the known proteasome stimulator miconazole and the known proteasome inhibitor MG132. The covalent fluorescent-based probe utilized an epoxy-ketone warhead that interacts with the β5 subunit of the proteasome, forming a covalent attachment and fluorescently tagging the proteasome. The addition of the CyPPSs induces a significant shift in the intracellular fluorescence (FIG. 6). This shift validated that CyPPSs can stimulate cytosolic proteasome in cellulo. […] However, their activity was lower than what would be expected based on their in vitro activity. This may be due to incomplete cellular uptake or escape from the endosomes. […] This is likely due to a combination of effects, including the inability to stimulate the proteasome (FIGS. 2A and 2B) as well as the generally poor cell permeability and stability of linear peptides.
Confluent HEK 293T cells were seeded into sterilized 2 mL Fisherbrand Eppendorf tubes in FBS free Dulbecco's Modified Eagle Medium (DMEM) at a concentration of 300,000 cells per tube. The cells were centrifuged at 1000 g for 5 minutes. The supernatant was removed, and the cells were resuspended in 500 μL of a 10 μM stimulator solution in FBS free DMEM. Cells were spun down at 1000 g for 5 minutes, and the supernatant was again removed. Cells were then resuspended in 500 μL of a 10 μM stimulator 2.5 μM epoxomicin probe in FBS-free DMEM and incubated for 1 hour at 37° C. Cells were again centrifuged at 1000 g for 5 minutes. Supernatant was then removed, and cells were washed once with cold PBS. Cells were then resuspended in 50 μL of cold PBS and placed on ice. Cellular fluorescence was measured by collecting 50,000 events using the FITC channel of a BD Accuri C6 Flow Cytometer and analyzed using FlowJo.

human red blood cells = assay: Hemolysis assay; format: cell-based; conditions: percent hemolysis, 1 hour at 37° C., table title 15 uM, method 20 μM, in %
Experimental: Whole human blood was purchased at BiolVT and used prior to its expiration. 100 μL blood was added to a 1.5 mL Eppendorf tub with 500 μL of sterile 0.9% NaCl. The tube was inverted multiple times to mix the solution. This mixture was centrifuged at 500 g for 7 minutes. The supernatant was extracted utilizing a pipette. The pellet was washed 2 more times. After the final wash, 800 μL of Red Blood Cell (RBC) buffer was added to the pellet to resuspend the red blood cells. 4 μL of the compounds (20 μM in DMSO, final concentration), 76 μL RBC buffer, and 40 μL resuspended red blood cells were added to a 96 U-well plate (VWR) and incubated for 1 hour at 37° C. The plate was spun at 500 g for 5 minutes. […] of the supernatant was transferred to a 96 flat-well plate. The absorbance was read at 540 nm utilizing a SpectraMax iD3 platereader. Percent hemolysis was measured from the average absorbance of the positive and negative controls. A minimum of 3 biological triplicates were performed.

20S CP [5] = system: T1, 20S CP; assay: Purified protein degradation assay; format: biochemical; conditions: 10 uM CyPPS, 5 nM 20S CP, 200 ng purified protein, 1 hour at 37° C.; for proteasomal degradation of α-synuclein: highly disordered protein; for proteasomal degradation of GAPDH / proteasomal degradation of lysozyme: low disordered protein
Experimental: Proteins were diluted to 50 ng/μL in Tris HCl (50 mM, pH 7.6). The CyPPS were diluted to 30 μM in Tris HCl, with 6% DMSO. The 20S CP (South Bay) was diluted to 15 nM with Tris HCl. Each protein was performed with a latent level, basal level, and CyPPS in triplicate. The latent level was prepared with 4 μL protein and 8 μL of 3% DMSO in Tris HCl. The basal level contained 4 μL protein, 4 μL 20S CP, and 4 μL 6% DMSO in Tris HCl. The CyPPS was performed with 4 μL protein, 4 μL 20S CP, and 4 μL 30 μM CyPPS. The samples were incubated for 1 hour at 37° C. 4 μL of 4×SDS gel loading buffer was added and heated for 5 minutes at 95° C. The samples were run on a 15-well gradient gel for SDS-PAGE, stained with Coomassie, imaged with an imaging system, and quantified with ImageJ. Analysis was done via GraphPad PRISM9.

Compound | EC50 (20S CP [3]) | percent stimulation of the proteasome in the SNaPP library screen (20S CP [3]; library of 45 cyclic peptides, TAS-1 assay) | Emax (20S CP [3]) | TAS-1 (20S CP [3]) | In-Cellulo [4] | proteasomal degradation of α-synuclein (20S CP [5]) | proteasomal degradation of GAPDH (20S CP [5]) | proteasomal degradation of lysozyme (20S CP [5]) | 20S CP stimulatory activity (in words, SAR compared to CyPPS1) (20S CP [3]; TAS-1 assay) | activity in cell-based assays (in words) (proteasome [1]) | potency as proteasome stimulator (in words) (proteasome [2]) | cellular stimulation of the proteasome (in words) [4] | Hemolysis (human red blood cells)
CN(C)CCCN1c2ccccc2Sc2ccc(Cl)cc21 [chloropromazine] | – | – | – | – | – | – | – | – | – | inactivity in cell-based assays | – | – | –
C[C@H]1[C@H](C)CC[C@]2(C(=O)O)CC[C@]3(C)C(=CC[C@@H]4[C@@]5(C)CC[C@H](O)C(C)(C)[C@@H]5CC[C@]43C)[C@H]12 [ursolic acid] | – | – | – | – | – | – | – | – | – | – | lack of potency | – | –
Clc1ccc(COC(Cn2ccnc2)c2ccc(Cl)cc2Cl)c(Cl)c1 (centres unmarked) [miconazole] | – | – | – | – | – | – | – | – | – | – | lack of potency | – | –
CCCCC/C=C\C/C=C\C/C=C\C/C=C\CCCC(=O)Nc1ccc(O)cc1 [AM-404] | – | – | – | – | – | – | – | – | – | – | lack of potency | – | –
CC(C)c1ccc2c(c1)c(SC(C)(C)C)c(CC(C)(C)C(=O)O)n2Cc1ccc(Cl)cc1 [MK-866] | – | – | – | – | – | – | – | – | – | inactivity in cell-based assays | – | – | –

Now from value to compound, other results behind:

EC50 (20S CP [3]) | percent stimulation of the proteasome in the SNaPP library screen (20S CP [3]; library of 45 cyclic peptides, TAS-1 assay) | Emax (20S CP [3]) | TAS-1 (20S CP [3]) | In-Cellulo [4] | proteasomal degradation of α-synuclein (20S CP [5]) | proteasomal degradation of GAPDH (20S CP [5]) | proteasomal degradation of lysozyme (20S CP [5]) | 20S CP stimulatory activity (in words, SAR compared to CyPPS1) (20S CP [3]; TAS-1 assay) | Compound | activity in cell-based assays (in words) (proteasome [1]) | potency as proteasome stimulator (in words) (proteasome [2]) | cellular stimulation of the proteasome (in words) [4] | Hemolysis (human red blood cells)
6.4 µM | highest percent stimulation | 282.9 | 339.5 ± 15.7 | 235.1 ± 5.5 | greatly enhanced | little-to-no effect | little-to-no effect | – | CC(C)C[C@H]1NC(=O)[C@H]([C@H](C)O)NC(=O)[C@@H](C)NC(=O)[C@H](CCCNC(=N)N)NC(=O)[C@@H](Cc2ccccc2)NC(=O)[C@H](Cc2ccccc2)NC1=O [CyPPS1, TLFFRA [SEQ ID NO: 1]] (cyclo(F[dF]R[dA][aThr][dL])) | – | – | significant cellular stimulation of the proteasome | 13 ± 1
12.1 µM | – | 513.6 | 387.9 ± 2.7 | 231.4 ± 31.7 | greatly enhanced | little-to-no effect | little-to-no effect | retained stimulatory activity | C#CC[C@H]1NC(=O)[C@H]([C@@H](C)O)NC(=O)[C@@H](C)NC(=O)[C@H](CCCNC(=N)N)NC(=O)[C@@H](Cc2ccccc2)NC(=O)[C@H](Cc2ccccc2)NC1=O [CyPPS14, TXFFRA [SEQ ID NO: 14]] (cyclo(T[dPra]F[dF]R[dA])) | – | – | significant cellular stimulation of the proteasome | 2 ± 1
4.1 µM and 4 µM | – | 393 and 393.8 | 422.4 ± 18.5 | 173.7 ± 13.0 | – | – | – | retained activity | CC(C)[C@H]1NC(=O)[C@H]([C@@H](C)O)NC(=O)[C@@H](C)NC(=O)[C@H](CCCNC(=N)N)NC(=O)[C@@H](Cc2ccccc2)NC(=O)[C@H](Cc2ccccc2)NC1=O [CyPPS13, TVFFRA [SEQ ID NO: 13]] (cyclo(T[dV]F[dF]R[dA])) | – | – | – | 5 ± 2
14.2 µM | – | 701.4 | 372.2 ± 12.1 | 161.0 ± 31.7 | – | – | – | maintained stimulatory activity | CC(C)C[C@H]1NC(=O)[C@H](CC(=O)O)NC(=O)[C@@H](C)NC(=O)[C@H](CCCNC(=N)N)NC(=O)[C@@H](Cc2ccccc2)NC(=O)[C@H](Cc2ccccc2)NC1=O [CyPPS8, DLFFRA [SEQ ID NO: 8]] (cyclo(D[dL]F[dF]R[dA])) | – | – | – | 0 ± 0
4 µM and 4.1 µM | – | 391 and 390.9 | 352.4 ± 39.1 | 247.3 ± 15.4 | greatly enhanced | little-to-no effect | little-to-no effect | maintained stimulatory activity | CC(C)C[C@H]1NC(=O)[C@H]([C@@H](C)O)NC(=O)[C@@H](CN)NC(=O)[C@H](CCCNC(=N)N)NC(=O)[C@@H](Cc2ccccc2)NC(=O)[C@H](Cc2ccccc2)NC1=O [CyPPS23, TLFFRX [SEQ ID NO: 23]] (cyclo(T[dL]F[dF]R[dDap])) | – | – | significant cellular stimulation of the proteasome | 20 ± 4
